The record followed here is PubChem BioAssay (NCI).

SMILES strings stand for the structures.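 Test compounds were applied to cells in 96-well plates for 48 hours at 5 doses. TGI is the concentration that stops growth completely.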

Common to all, as to assay: inhibition of tumour cell growth, NCI panel, 48 h
In test [1] the test system is SK-OV-3 ovarian.
Test [2] concerns RXF 393 renal.
Test [3] deals with A549 NSCLC.
The test system of test [4] is UO-31 renal.
The subject of test [5] is NCI-H460 lung.
Test [6] has as its system OVCAR-4 ovarian.
The subject of test [7] is COLO 205 colon.
In test [8] the test system is MALME-3M melanoma.
In test [9] the test system is MOLT-4 leukemia.
Test [10] relates to SK-MEL-28 melanoma.
Test [11] relates to UACC-257 melanoma.
The subject of test [12] is SF-295 CNS.
Test [13] has as its system OVCAR-8 ovarian.
For test [14], the system named is NCI/ADR-RES ovarian.
Test [15] concerns MDA-MB-435.

As for `COc1cc(O)c2c(c1O)C(=O)c1cc(C)ncc1C2=O`, the TGI is 35.7 µM in [1]; greater than 50 µM in test [2]; greater than 50 µM in test [3]; 42.5 µM in test [4]; greater than 50 µM in test [5]; greater than 50 µM in test [6]. The TGI in test [7] is greater than 50 µM; in test [8], 27.6 µM; in test [9] it was greater than 50 µM; in test [10], greater than 50 µM; in test [11], 36.6 µM; in test [12] it was greater than 50 µM. In test [13], this molecule gave a TGI greater than 50 µM.

For the molecule `Cc1cc(S(=O)(=O)Nc2nc(N)nc(N(C)C)n2)c(SC(C(=O)O)c2ccccc2)cc1Cl` (stereo not given), the TGI in [14], in [1], in [2], in test [3], in test [4] and in test [5] was greater than 10 µM in each case. Besides, the TGI in test [6], in test [7], in test [8], in [9], in test [10] and in test [11] was greater than 10 µM each time. Besides, the TGI in [12] and in test [13] was greater than 10 µM in each case.

For the molecule `O=C1C=C(NCCc2cc(Cl)c(O)c(Cl)c2)C(=O)c2[nH]cnc21`, the TGI in test [14] was greater than 100 µM; in test [3], greater than 100 µM; in [4], greater than 100 µM; in [5], 68.3 µM; in test [7], 52.7 µM; in test [8], 15.9 µM. Also, the TGI is 67.5 µM in test [9]; 30.3 µM in test [15]; 65.9 µM in test [10]; 60 µM in [11]; 45.6 µM in [12]; greater than 100 µM in test [13].

Regarding `O=C1CCCCCCCCCCC1CN(Cc1ccccc1)Cc1ccccc1` (stereo not given), the TGI in test [1] was greater than 100 µM; in [2] it was 70.2 µM; in [3] it was greater than 100 µM; in test [4], greater than 100 µM; in test [6] it was greater than 100 µM; in test [7], greater than 100 µM. Moreover, the TGI was 75.2 µM in [8]; 62.5 µM in test [9]; greater than 100 µM in [15]; greater than 100 µM in test [10]; greater than 100 µM in test [11]; greater than 100 µM in test [12]. This molecule showed a TGI in [13] greater than 100 µM.

Take `CCC(C)C(NC(=O)c1c2ccccc2nc2ccccc12)C(=O)O` (stereo not given): the TGI in [14], in test [1], in [3], in test [4], in test [5] and in test [6] was greater than 100 µM each time. Besides, the TGI in test [7], in test [8], in test [9], in test [15], in test [10] and in test [11] was greater than 100 µM in each case. The TGI in [12] and in test [13] was greater than 100 µM each time.

For `C=CCOCn1ccc(NC(=O)c2ccccc2)nc1=O`, the TGI in test [1], in test [3], in test [4], in test [5], in test [7] and in test [8] was greater than 100 µM each time. Also, the TGI in test [9], in test [15], in test [10], in [11], in test [12] and in test [13] was greater than 100 µM throughout.

For `ClCCCC1COc2ccccc2O1` (stereo not given), the TGI in [14], in test [1], in test [2], in test [3], in [4] and in test [5] was greater than 100 µM each time. The TGI in [6], in test [7], in [8], in test [9], in [10] and in test [11] was greater than 100 µM throughout. The TGI in [12] and in test [13] was greater than 100 µM in each case.

In the case of `CCCC(=O)[O-].CCCC(=O)[O-].N.N.N.N.[Co+3].[O-][Cl+3]([O-])([O-])[O-]`, the TGI in test [1], in [3], in test [4], in test [5], in test [6] and in test [7] was greater than 100 µM in each case. For the same molecule, the TGI in [8], in test [9], in test [10], in [11], in test [12] and in test [13] was greater than 100 µM in each case.

`Cc1ccc(C(O)/C(=N/N)c2nc3ccc([N+](=O)[O-])cc3[nH]c2=O)cc1` (stereo not given): the TGI in test [1], in test [2], in test [3], in [4], in test [5] and in [6] was greater than 100 µM throughout. In addition, the TGI in test [7], in [8], in [9], in [10], in test [11] and in test [12] was greater than 100 µM in each case. This molecule also yielded a TGI in test [13] greater than 100 µM.

`O=c1nc(-c2ccccc2)scc1-c1ccccc1`: the TGI in test [1], in [2], in [3], in test [4], in test [5] and in [6] was greater than 100 µM in each case. For the same molecule, the TGI in test [7], in [8], in test [9], in test [10], in [11] and in [12] was greater than 100 µM in each case. This molecule also had a TGI in test [13] greater than 100 µM.
